According to patent US6761896B1, “Skin cosmetic care system and method” (Unilever Home & Personal Care USA, division of Conopco, Inc., priority 1998, dated 2004):

Columns and labels:
[1] = tested on: pig skin dermis; experiment: DNA synthesis (3H-thymidine) of pig skin organ cultures, dermis; assay type: cell-based
Method: Freshly excised 2-3 week old piglet skins were obtained from Buckshire Farms, Pa. The pig skins were washed exhaustively first with soap and then with 10× antibiotic containing medium (penicillin, streptomycin). The pig skins were then dermatomed at 200 microns thickness. Seven (7) mm punch biopsies were made from these washed pig skins. The biopsies are then washed again with the 10× antibiotic medium and finally with normal DMEM (2 washes). Three (3) biopsies were incubated in each transwell plates, epidermal side up, with 1 ml of serum free DMEM fed from the bottom of the plates. Experiments were started 3 days after the biopsies were equilibrated under these conditions. Three (3) days after equilibrating the pig skin organ cultures prepared as described above, the medium was removed, 1 ml of fresh medium was added, and the wells were treated with different concentrations of lactic acid by adding from a 100 fold concentrated stock in water, directly into the medium. Simultaneous with the addition of lactic acid, selected cultures were also exposed to the South or North pole of a bar magnet or to the Bioflex magnet. The magnets were placed on top of the culture dish to expose the epidermis directly (the organ culture is carried out with the epidermis side on top). Three (3) days later, medium was changed, lactic acid was re-added, and 10 uCi ^3H-thymidine was added to each well. Plates were incubated for a further 24 hrs. At the end of the incubation period, biopsies were removed, washed in PBS for 1 hr with shaking, and incubated overnight in 10 ml of 2M sodium bromide with shaking to split the epidermis from the dermis. The biopsies were washed with PBS, and the epidermis was peeled off from dermis carefully using a scalpel. The epidermis and dermis were digested with 1 ml of 0.5N NaOH overnight at 50 C, 200 ul was used for counting the radioactivity. The DNA synthesis rate was calculated as cpm/7 mm punch biopsy for dermis or epidermis and in some experiments expressed also as % of controls. All organ culture experiments were conducted with at least 6 replicates, and the mean+/−standard deviation was calculated for statistical analysis using Students t-test. In example 7, dermal proliferation was measured as a function of lactic acid and magnetic pole treatment.

[2] = tested on: normal human keratinocytes; experiment: Keratinocyte proliferation measured by DNA content (monolayer cultures); assay type: cell-based
Method: The cells used in these studies are normal human keratinocytes and pig skin organ cultures. The normal human keratinocytes isolated from neonatal foreskins by trypsin treatment were growth in DME medium/5% fetal calf serum in the presence of mitomycin C treated 3T3 mouse fibroblasts of establishing dividing colonies. Keratinocytes were grown under these conditions until their third passage. For the experiments, third passage keratinocytes were plated into a serum-free keratincoyte growth medium (KGM; obtained form Clonetics, San Diego, Calif.) containing 0.15 mM calcium. Neonatal human fibroblasts were obtained from Clonetics and grown in Dulbecco's Minimum essential medium (DMEM) containing 10% fetal calf serum. Experiments were conducted in cells between passage numbers 4-10. Keratinocytes were plated in the middle 60 wells of 96 well plates (3000 cells/well). 24 hrs later, the plates were placed on top, in the middle of the magnet (bar or Bioflex) and grown for a further 4 days until the cells become 70-80% confluent. Medium was changed every 2 or 3 days. Control plates were placed on top of a nonmagnetic metal plate and the test plates were placed on top of the bar magnet (North or South side up) or in the middle of the Bioflex magnet. In some studies where the growth of cells were measured as a function of magnetic force, plates were placed on top of one another on top of the magnet such that the bottom plate is closest to the magnet (highest force) and the top plate is the furthest away from the magnet (lowest magnetic force). Studies to assess the effects of North and South magnets were carried out in different incubators to avoid the influence of one magnet on the other. After 4 days of growth, the plates were removed from the incubator, washed 2 times with phosphate buffered saline (PBS), and incubated with 100 ul of a bisbenzimide H 33258 solution (obtained from Calbiochem—stock solution was prepared at 1 mg/ml distilled water,'stored in dark at 4° C. for no longer than 1 week). After 15 min of incubation in the dark at room temperature, fluorescence was measured on a Millipore Cytofluor 2000b (ex/em=360/460 nm). The DNA content was calculated using a standard of calf thymus DNA and expressed as ug/well or as % of control wells which were not exposed to magnets. In all the studies using monolayer cultures mean+/−standard deviation of at least 24 different wells were used to calculate statistical significance using Students t-test. Example 3 evaluated the synergy between lactic acid and magnetic field in inducing the proliferation of keratinocytes. In this study, using in vitro keratinocyte cultures, 2 mM lactic acid increased proliferation by 5.4%. This increase was not statistically significant. […]

[3] = Example 7, dermis, LA + North pole
[4] = Example 7, dermis, LA + South pole

## CC(O)C(=O)O (stereo not drawn) [LA, lactic acid]
[1]; Example 7, dermis, 0.2 mM LA, no magnet
  DNA SYNTHESIS (CPM/BIOPSY) MEAN +/- STD: 15306 +/− 4656 CPM/BIOPSY
[1]; [3]
  DNA SYNTHESIS (CPM/BIOPSY) MEAN +/- STD: 16886 +/− 2227 CPM/BIOPSY
  DNA synthesis AS % OF CONTROL: 178%
[1]; [4]
  DNA SYNTHESIS (CPM/BIOPSY) MEAN +/- STD: 17244 +/− 4259 CPM/BIOPSY
  DNA synthesis AS % OF CONTROL: 182%
[1]; Example 7, combinations of magnet with lactic acid
  synergy of magnet with lactic acid in the dermis: no synergy
[1]; Example 7, lactic acid alone
  effect on dermal proliferation: significant stimulation
[1]; Sus scrofa, Example 7, dermis, 0.2 mM LA, no magnet, read-out: DNA synthesis AS % OF CONTROL
  activity at 200 µM: 162%
[2]; 2 mM lactic acid + BIOflex magnet
  DNA content, Average: 277
[2]; 2 mM lactic acid in the presence of BIOflex magnet, statistically significant
  stimulation of keratinocyte proliferation: 15%
[2]; 2 mM lactic acid, no magnet
  DNA content, Average: 254
[2]; 2 mM lactic acid, no magnet, not statistically significant
  increase in keratinocyte proliferation: 5.4%
